Source: the NIST ThermoML archive (doi:10.1007/s10765-007-0223-x)

Assay: xn = mol fraction of the nth substance listed
Details: 101 kPa, Liquid; for speed of sound: Single path-length method

COC(C)(C)C [2-methoxy-2-methylpropane] + c1ccccc1
Details | mass density [kg/m3] | speed of sound [m/s]
288.15 K, x1 = 0.052 | 874.712 | 1328.4
288.15 K, x1 = 0.111 | 864.515 | 1309.5
288.15 K, x1 = 0.202 | 849.416 | 1281.7
288.15 K, x1 = 0.303 | 833.719 | 1252.5
288.15 K, x1 = 0.397 | 819.912 | 1226.5
288.15 K, x1 = 0.5 | 805.496 | 1199.1
288.15 K, x1 = 0.596 | 792.712 | 1174.8
288.15 K, x1 = 0.698 | 779.712 | 1149.4
288.15 K, x1 = 0.791 | 768.503 | 1128.2
288.15 K, x1 = 0.902 | 755.682 | 1103
288.15 K, x1 = 0.95 | 750.294 | 1092.4
288.15 K, x1 = 1 | 744.861 | 1083.4
290.65 K, x1 = 0.052 | 872.067 | 1316.5
290.65 K, x1 = 0.111 | 861.888 | 1297.5
290.65 K, x1 = 0.202 | 846.799 | 1269.6
290.65 K, x1 = 0.303 | 831.129 | 1240.5
290.65 K, x1 = 0.397 | 817.328 | 1214.4
290.65 K, x1 = 0.5 | 802.92 | 1187.2
290.65 K, x1 = 0.596 | 790.137 | 1163
290.65 K, x1 = 0.698 | 777.135 | 1137.7
290.65 K, x1 = 0.791 | 765.921 | 1116.4
290.65 K, x1 = 0.902 | 753.094 | 1091.2
290.65 K, x1 = 0.95 | 747.701 | 1080.6
290.65 K, x1 = 1 | 742.259 | 1071.6
293.15 K, x1 = 0.052 | 869.419 | 1304.8
293.15 K, x1 = 0.111 | 859.259 | 1285.9
293.15 K, x1 = 0.202 | 844.19 | 1258
293.15 K, x1 = 0.303 | 828.533 | 1228.9
293.15 K, x1 = 0.397 | 814.742 | 1202.9
293.15 K, x1 = 0.5 | 800.338 | 1175.6
293.15 K, x1 = 0.596 | 787.557 | 1151.4
293.15 K, x1 = 0.698 | 774.552 | 1126.2
293.15 K, x1 = 0.791 | 763.334 | 1104.8
293.15 K, x1 = 0.902 | 750.497 | 1079.6
293.15 K, x1 = 0.95 | 745.1 | 1069
293.15 K, x1 = 1 | 739.654 | 1060
295.65 K, x1 = 0.052 | 866.766 | 1293
295.65 K, x1 = 0.111 | 856.624 | 1274.2
295.65 K, x1 = 0.202 | 841.573 | 1246.3
295.65 K, x1 = 0.303 | 825.932 | 1217.3
295.65 K, x1 = 0.397 | 812.151 | 1191.3
295.65 K, x1 = 0.5 | 797.75 | 1164
295.65 K, x1 = 0.596 | 784.966 | 1139.8
295.65 K, x1 = 0.698 | 771.959 | 1114.6
295.65 K, x1 = 0.791 | 760.733 | 1093.1
295.65 K, x1 = 0.902 | 747.886 | 1067.9
295.65 K, x1 = 0.95 | 742.485 | 1057.2
295.65 K, x1 = 1 | 737.036 | 1048.5
298.15 K, x1 = 0.052 | 864.111 | 1281.3
298.15 K, x1 = 0.111 | 853.986 | 1262.6
298.15 K, x1 = 0.202 | 838.954 | 1234.8
298.15 K, x1 = 0.303 | 823.323 | 1205.8
298.15 K, x1 = 0.397 | 809.552 | 1179.8
298.15 K, x1 = 0.5 | 795.155 | 1152.5
298.15 K, x1 = 0.596 | 782.366 | 1128.2
298.15 K, x1 = 0.698 | 769.356 | 1103
298.15 K, x1 = 0.791 | 758.126 | 1081.5
298.15 K, x1 = 0.902 | 745.267 | 1056.2
298.15 K, x1 = 0.95 | 739.86 | 1045.5
298.15 K, x1 = 1 | 734.406 | 1036.9
300.65 K, x1 = 0.052 | 861.451 | 1269.7
300.65 K, x1 = 0.111 | 851.345 | 1251
300.65 K, x1 = 0.202 | 836.329 | 1223.2
300.65 K, x1 = 0.303 | 820.71 | 1194.3
300.65 K, x1 = 0.397 | 806.945 | 1168.3
300.65 K, x1 = 0.5 | 792.548 | 1141
300.65 K, x1 = 0.596 | 779.76 | 1116.7
300.65 K, x1 = 0.698 | 766.742 | 1091.5
300.65 K, x1 = 0.791 | 755.506 | 1070
300.65 K, x1 = 0.902 | 742.638 | 1044.7
300.65 K, x1 = 0.95 | 737.224 | 1033.8
300.65 K, x1 = 1 | 731.766 | 1025.4
303.15 K, x1 = 0.052 | 858.785 | 1258
303.15 K, x1 = 0.111 | 848.697 | 1239.5
303.15 K, x1 = 0.202 | 833.698 | 1211.7
303.15 K, x1 = 0.303 | 818.089 | 1182.8
303.15 K, x1 = 0.397 | 804.33 | 1156.9
303.15 K, x1 = 0.5 | 789.936 | 1129.6
303.15 K, x1 = 0.596 | 777.144 | 1105.2
303.15 K, x1 = 0.698 | 764.119 | 1080
303.15 K, x1 = 0.791 | 752.877 | 1058.5
303.15 K, x1 = 0.902 | 739.994 | 1033.2
303.15 K, x1 = 0.95 | 734.576 | 1022.3
303.15 K, x1 = 1 | 729.112 | 1013.9
305.65 K, x1 = 0.052 | – | 1246.5
305.65 K, x1 = 0.111 | – | 1228
305.65 K, x1 = 0.202 | – | 1200.3
305.65 K, x1 = 0.303 | – | 1171.4
305.65 K, x1 = 0.397 | – | 1145.5
305.65 K, x1 = 0.5 | – | 1118.2
305.65 K, x1 = 0.596 | – | 1093.8
305.65 K, x1 = 0.698 | – | 1068.6
